Our source for the MIC and Activity values is ChEMBL document CHEMBL6096719, “Kidney Targeting Smart Antibiotic Discovery: Multimechanism Pleuromutilins for Pyelonephritis Therapy” (J Med Chem, 2025).

Active and inactive are the calls of the source. The calls are words filed in the database; no cut-off is given here.

The subject of assay [1] is Acinetobacter baumannii. Kind of assay: Antibacterial activity against carbapenem-resistant Acinetobacter baumannii 882 assessed as inhibition of bacterial growth incubated for 24 hrs by broth microdilution method. It is filed as functional.
Assay [2] relates to Mycoplasma genitalium. Kind of assay: Anti-mycoplasma activity against Mycoplasma genitalium G37 ATCC33530 assessed as inhibition of bacterial growth incubated for 7 to 14 days by broth microdilution method. It is filed as functional. Conditions: Mycoplasmoides genitalium, time 7-14 day. On the technique in general: Broth dilution looks for growth in wells or tubes with falling amounts of substance.

Assay [3] concerns Cell membrane. Kind of assay: Disruption of cell membrane in methicillin-resistant Staphylococcus aureus ATCC33591 assessed as decrease in intracellular pH at 0.125 ug/ml incubated for 30 mins by cFDA-SE probe based fluorescence analysis. Conditions: dose 0.125 µg/ml.
Assay [4] relates to Escherichia coli. The experiment in a line: Antibacterial activity against Escherichia coli ATCC25922 infected in pyelonephritis C57BL/6 mouse model assessed as decrease in inflammatory cell infiltration in kidney at 3 to 10 mg/kg, iv qd for 3 days administered at 2 days post-infection by Hematoxylin-Eosin staining based analysis. Format: functional, organism-based. As to conditions: dose 3-10 mg/kg, time 3.0 day.

Usually MIC stands for the lowest concentration that inhibits growth of the organism. Regarding `C=C[C@]1(C)C[C@@H](OC(=O)CSc2nc3cc[n+](Cc4ccc(C)cc4)cc3[nH]2)[C@]2(C)[C@H](C)CC[C@]3(CCC(=O)[C@H]32)[C@@H](C)[C@@H]1O.[Br-]`, the MIC in assay [1] was 4 µg/mL; in assay [2], < 0.04 µg/mL. The outcome in assay [3] and in assay [4] was Active.
